Entries after “also recorded” stand apart in the source; their conditions may differ. Marks after values point to notes of the source that are not given here.
Tests used:
[1] = tested on: Osteoblast-like rat osteosarcoma cells (ROS17/2.8); experiment: Intracellular calcium measurements (Fura-2 fluorimetry), with or without VDCC blockers, PLC inhibitors or thapsigargin; type: cell-based; parameters: Δ[Ca^2+]i: unit not given here; conditions: for Ca^2+ response after depletion of Ca^2+ stores with thapsigargin: 1 μM thapsigargin, bisphosphonate 10 nM; for % Inhibition (decrease in Δ[Ca^2+]i) / [Ca^2+]i / Δ[Ca^2+]i: 10^−8 M; for rapid (1 min) increase in cytosolic Ca^2+ after pretreatment with PLC inhibitors: U73122 (2 μM) or neomycin (0.5 mM); for rapid (1 min) increase in cytosolic Ca^2+ after pretreatment with U73343: U73343, analogue of U73122 devoid of effect on PLC, not shown; for reduction of the induced [Ca^2+]i increase by VDCC blockers: pretreatment with nifedipine (2 μM) or verapamil (5 μM)
Procedure: (§1) Osteoblast-like rat osteosarcoma cells (ROS17/2.8) were cultured as monolayers at 37° C. in Dulbecco's modified Eagle's medium (DME) containing 10% fetal bovine serum under humidified air (5.5% CO2). After 48 hours, medium was changed to DME containing 1% fetal bovine serum. Unless otherwise stated, cells were allowed to grow until confluence (4-5 days after plating).
Intracellular Ca^2+ changes were monitored by using the Ca^2+-sensitive fluorescent dye Fura-2 as previously described (Vasquez et al., 1998, J. Biol. Chem. 273, 33954-33960). Cell dye loading was achieved by incubating the cells in buffer A containing (in mM): 138 NaCl, 5 KCl, 1 MgCl2, 5 glucose, 10 HEPES (pH 7.4), 1.5 CaCl2, plus 0.1% bovine serumalbumin (BSA), 2 μM of the pentaacetoxymethylester derivative (membrane permeable) Fura-2/AM and 0.012% pluronic F-127, in the dark during 40 min at room temperature (20-25° C.) in order to minimize dye compartmentalization. Unloaded dye was washed out and cells were stored in buffer B (buffer A without BSA, Fura-2/AM and pluronic F-127) in the dark (room temperature) by at least 30 min prior to use, to allow for complete intracellular dye deesterification. For fluorescence measurements the coverslips containing dye-loaded cells were mounted into quartz cuvettes and introduced into the thermostatized (37° C.) sample compartment of a SLM Aminco 8100 spectrofluorimeter. Fura-2 intracellular fluorescence intensity was monitored at an emission wavelength of 510 nm (8 nm bandpass) by alternating with an electronically controlled chopper (300 Hz) the excitation wavelength between 340 and 390 nm employing a dual excitation monochromator at 4 nm bandpass. Signals from short and long wavelength were ratioed (R=340/390) thus making the measurement independent of variations in cellular dye content, dye leakage or photobleaching. Calibration of Fura-2 signal to calculate [Ca^2+]i values was performed for each coverslip as follows: maximal (Rmax) and minimal (Rmin) intracellular dye fluorescence signals were determined by adding 5 μM ionomycin plus 3 mM Ca^2+ and 10 mM EGTA (pH 7.0) plus 10 mM Tris-base (pH 9.0), respectively.
[Ca^2+]i=Kd(R−Rmin)/(Rmax−R)×β
where R is the ratio of Fura-2 fluorescence at the selected wavelengths, Rmax and Rmin represent ratios from Ca^2+ saturated and Ca^2+ free intracellular dye, respectively, and β is the ratio between the specific fluorescence of the Ca^2+ free and Ca^2+ bound forms of the dye at the longer wavelength (Sf2/Sb2).
Fura-2 loaded osteoblasts were treated with vehicle (buffered saline solution, Basal), OPD (10−8 M) or NH2-OPD (10^−8 M) and intracellular Ca^2+ concentration ([Ca^2+]i) was measured as described. Given are [Ca^2+]i values corresponding to the plateau phase (5 min after BP exposure; see FIG. 3) of the BP-induced Ca^2+ response. When used, both nifedipine (2 μM) and verapamil (5 μM) were added 3 min before stimulation. Data are the average of 5 independent [Ca^2−]i recordings±sd. p values (*p<0.001; **p<0.01) are given for significant differences respect to basal. Percent (%) inhibition refers to the decrease in Δ[Ca^2+]i.
Fura-2 loaded cells were treated with vehicle (buffered saline solution, Basal), OPD (10^−8 M) or NH2-OPD (10^−8 M) and intracellular Ca^2+ concentration ([Ca^2+]i) was measured as described. Unless otherwise indicated, [Ca^2+]i stimulation was evaluated at the plateau phase of the BP-induced response (see FIG. 3). When used, the PLC inhibitors U73122 (2 μM) or neomycin (0.5 mM, data in parentheses) were added into the measurement cuvette 3 min before stimulation. In the PLC-inhibition assay [Ca^2+]i values measured at 1- and 5-min. after stimulation are given. Results are expressed as percent of control (100%) to allow comparison among different assay conditions, and are the average of 3 independent experiments±sd. *p<0.001; **p<0.01. Percent (%) inhibition refers to the decrease in Δ[Ca^2+]i.

[2] = tested on: Osteoblast-like rat osteosarcoma cells (ROS17/2.8); experiment: Determination of osteocalcin synthesis (radio-immunoassay of OC released into the medium); type: cell-based; conditions: for order of potency relative to 1,25(OH)2D3 (induction of OC synthesis): 1,25(OH)2D3 = 1.0; for effectiveness on OC synthesis compared with the steroid hormone 1,25(OH)2D3 / stimulation of OC synthesis: 72 hours incubation
Procedure: Cells were grown by 72 hours in the absence (control) or presence of the indicated concentrations of 1α, 25-dihydroxy-vitamin D3[1,25(OH)2D3], EHDP, APD, OPD or NH2-OPD. Then osteocalcin (OC) released into the medium was quantitated as described in Example 4. Data are the average±SD of 3 independent experiments performed by triplicate.
as §1
Osteoblasts grown by 48 hours in multiwells were changed to Dulbecco's modified Eagle's medium containing 1% fetal bovine serum plus the indicated concentration of BP, 10^−8 M 1,25(OH)2D3 (positive control), or vehicle alone, and then allowed to grow for an additional period of 72 hours. The medium from each well was collected and stored frozen at −80° C. until use for osteocalcin measurements. Osteocalcin (OC) was quantitatively measured by radio-immunoassay using a commercially avalaible kit (Osteocalcin DSL-6900, Diagnostic Systems Laboratories Inc., Webster, Tex., USA) according to manufacturer's instructions. Osteocalcin values were corrected for total cellular protein content.

bone resorption = conditions: Van Beek E. et al., 1996, J. Bone Miner. Res. 11, 1492-1497; cited from earlier work
[3] = U73122 (2 μM), 1 min after stimulation
[4] = U73122 (2 μM), 5 min after stimulation
[5] = neomycin (0.5 mM, data in parentheses), 1 min
[6] = neomycin (0.5 mM, data in parentheses), 1 min after stimulation
[7] = neomycin (0.5 mM, data in parentheses), 5 min
[8] = neomycin (0.5 mM, data in parentheses), 5 min after stimulation
[9] = plateau phase (5 min), nifedipine (2 μM) pretreatment
[10] = plateau phase (5 min), nifedipine (2 μM) pretreatment 3 min before
[11] = plateau phase (5 min), no pretreatment, basal 135 ± 6
[12] = plateau phase (5 min), no pretreatment, difference to basal
[13] = plateau phase (5 min), verapamil (5 μM) pretreatment
[14] = plateau phase (5 min), verapamil (5 μM) pretreatment 3 min before
[15] = plateau phase, no PLC inhibitor
[16] = plateau phase, no PLC inhibitor, difference to control (100%)

| SMILES | maximal change in cytosolic Ca^2+ relative to 1,25(OH)2D3 ([1]; 10 nM) | time-to-peak of cytosolic Ca^2+ change ([1]; 10 nM) | order of potency relative to 1,25(OH)2D3 (induction of OC synthesis) ([2]; 10^−8 M, 72 hours) | Ca^2+ response after depletion of Ca^2+ stores with thapsigargin [1] | % Inhibition (decrease in Δ[Ca^2+]i) ([1]; U73122 (2 μM), 1 min) | [Ca^2+]i [1, 3] | % Inhibition (decrease in Δ[Ca^2+]i) ([1]; U73122 (2 μM), 5 min) | [Ca^2+]i [1, 4] | % Inhibition (decrease in Δ[Ca^2+]i) [1, 5] | [Ca^2+]i [1, 6] | % Inhibition (decrease in Δ[Ca^2+]i) [1, 7] | [Ca^2+]i [1, 8] | % Inhibition (decrease in Δ[Ca^2+]i) [1, 9] | Δ[Ca^2+]i [1, 9] | [Ca^2+]i [1, 10] | [Ca^2+]i [1, 11] | Δ[Ca^2+]i [1, 12] | % Inhibition (decrease in Δ[Ca^2+]i) [1, 13] | [Ca^2+]i [1, 14] | effectiveness on OC synthesis compared with the steroid hormone 1,25(OH)2D3 [2] | also measured |
| --- | --- | --- | --- | --- | --- | --- | --- | --- | --- | --- | --- | --- | --- | --- | --- | --- | --- | --- | --- | --- | --- |
| CC(O)(P(=O)(O)O)P(=O)(O)O [EHDP, etidronate] | less effective than the steroid | 120 s | 0.85 |  |  |  |  |  |  |  |  |  |  |  |  |  |  |  |  |  | rate of Ca^2+ elevation, initial phase (0-2 min) ([1]; 10 nM): slowest rate of Ca^2+ elevation |
| CN(C)CCC(O)(P(=O)(O)O)P(=O)(O)O [OPD, olpadronate] | equipotent to the steroid | 60 s | 1.9 | completely blocked | 100(100) % | 105 ± 3% of control (100%) | 100(100) % | 100 ± 5% of control (100%) | 100(100) % | 98 ± 2% of control (100%) | 100(100) % | 100 ± 8% of control (100%) | 70% | 21 | 156 ± 8** nM | 205 ± 10* nM | 70 | 85% | 146 ± 5 nM | more effective than the steroid hormone | Δ[Ca^2+]i [1, 13]: 11; [Ca^2+]i [1, 15]: 164 ± 9* percent of control (100%); Δ[Ca^2+]i [1, 16]: 64; rapid (1 min) increase in cytosolic Ca^2+ after pretreatment with PLC inhibitors [1]: totally blocked; rapid (1 min) increase in cytosolic Ca^2+ after pretreatment with U73343 [1]: not by U73343; reduction of the induced [Ca^2+]i increase by VDCC blockers [1]: 70%; stimulation of OC synthesis [2]: markedly stimulated OC synthesis in a dose-dependent fashion |
| NCCC(O)(P(=O)(O)O)P(=O)(O)O [APD, pamidronate] | less effective than the steroid | 80 s | 1.1 |  |  |  |  |  |  |  |  |  |  |  |  |  |  |  |  | more effective than the steroid hormone |  |
| C=C1/C(=C\C=C2/CCC[C@]3(C)[C@@H]([C@H](C)CCCC(C)(C)O)CC[C@@H]23)C[C@@H](O)C[C@@H]1O [1,25(OH)2D3, 1α, 25-dihydroxy-vitamin D3] |  | 90 s | 1.0 |  |  |  |  |  |  |  |  |  |  |  |  |  |  |  |  |  | release of OC into the culture medium increased respect to control, untreated cells ([2]; 10^−8 M, 72 hours): 100% |
| CN(C)CCC(N)(P(=O)(O)O)P(=O)(O)O [NH2-OPD, 1-amino-3-(N,N-dimethylamino)-propylidene-1,1-bisphosphonic acid] | less effective than the steroid | 80 s | 0.85 | completely blocked | 100% | 101 ± 5% of control (100%) | 100(100) % | 100 ± 11% of control (100%) | 99% | 99 ± 1% of control (100%) | 100(100) % | 100 ± 5% of control (100%) | 90% | 2 | 137 ± 6 nM | 150 ± 3** nM | 15 | 100% | 133 ± 7 nM | lower than for the secosteroid | [Ca^2+]i [1, 15]: 137 ± 3** percent of control (100%); Δ[Ca^2+]i [1, 16]: 37; rapid increase in [Ca^2+]i (time of onset) ([1]; Fura-2 loaded cells): 60 s; rapid (1 min) increase in cytosolic Ca^2+ after pretreatment with PLC inhibitors [1]: totally blocked; rapid (1 min) increase in cytosolic Ca^2+ after pretreatment with U73343 [1]: not by U73343; reduction of the induced [Ca^2+]i increase by VDCC blockers [1]: almost completely abolished; return of [Ca^2+]i to near basal levels after peak ([1]; transient Ca^2+ rise, down-turn phase after peak): 1 to 2 min; stimulation of OC synthesis [2]: markedly stimulated OC synthesis in a dose-dependent fashion; antiresorptive activity (bone resorption): complete loss of antiresorptive activity; also recorded: absolutely devoid of antiresorptive properties |

Source: US6605603B1, “Uses of 1-amino-3-(N,N-dimethylamino)-propylidene-1,1-bisphosphonic acid” (Gador, S.A., priority 1998, dated 2003)
